Source: patent US7432276B2, “ABCA1 elevating compounds” (CV Therapeutics, Inc., priority 2005, dated 2008)

System: ABCA1 mRNA
Assay: ABCA1 mRNA induction in THP-1 cells, QuantiGene branched DNA assay
Assay type: cell-based
Details: 10 μM test compound, 18-20 hours; for fold induction at 10 µM: Homo sapiens, read-out: ABCA1 Induction Fold Increase over DMSO Vehicle
In short: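 THP-1 cells, grown to subconfluence, treated with compounds at 10 and 3 μM in DMEM/BSA for 18–20 h. Lysates hybridized with ABCA1-specific probe 16–18 h at 53 °C; QuantiGene branched DNA luminescence gives fold increase over DMSO.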

Structure (SMILES) | ABCA1 Induction Fold Increase over DMSO Vehicle [FOLD INCREASE] | fold induction at 10 µM
COc1cccc2c1OC[C@@H]1[C@H]2Nc2ccc(OC(F)(F)F)cc2C1(C)C [Number 52, ((6aS,12aR)-4-methoxy-7,7-dimethyl(7,12,12a,6a-tetrahydrochromano[4,3-b]quinolin-9-yloxy))trifluoromethane] | 9.5 | 
COc1cc(Br)cc2c1OC[C@H]1[C@@H]2Nc2ccc(-c3cnco3)cc2C1(C)C [Number 149, (6aR,12aS)-2-bromo-6a,7,12,12a-tetrahydro-4-methoxy-7,7-dimethyl-9-(oxazol-5-yl)-6H-chromeno[4,3-b]quinoline] |  | 5.5
CCS(=O)(=O)N1CCN(C(=O)c2coc(-c3ccc4c(c3)C(C)(C)[C@H]3COc5cccc(OC)c5[C@H]3N4)n2)CC1 [Number 147, 2-((6aR,12aS)-1-methoxy-6a,7,12,12a-tetrahydro-7,7-dimethyl-6H-chromeno[4,3-b]quinolin-9-yl)oxazole-(4-(4-ethanesulfonylpiperazin-1-yl)methanone)] | 7 | 
COc1cccc2c1[C@H]1Nc3ccc(-c4csc(C)n4)cc3C(C)(C)[C@H]1CO2 [Number 110, (12aS,6aR)-1-methoxy-7,7-dimethyl-9-(2-methyl(1,3-thiazol-4-yl))-7,12,12a,6a-tetrahydrochromano[4,3-b]quinoline] | 6.0 | 
COc1cccc2c1[C@H]1Nc3ccc(-c4nc(C(=O)N5CCS(=O)(=O)CC5)co4)cc3C(C)(C)[C@H]1CO2 [Number 148, 2-((6aR,12aS)-1-methoxy-6a,7,12,12a-tetrahydro-7,7-dimethyl-6H-chromeno[4,3-b]quinolin-9-yl)oxazole-(4-(1,1-dione-1,4-thiazaperhydroin-yl)methanone)] | 11 | 
CCOC(=O)c1ccc(-c2ccc3c(c2)C(C)(C)[C@H]2COc4cccc(OC)c4[C@H]2N3)cc1 (relative stereo) [Number 107, ethyl 4-((12aS,6aR)-1-methoxy-7,7-dimethyl-7,12,12a,6a-tetrahydrochromano[4,3-b]quinolin-9-yl)benzoate] | 2.9 | 
COc1cc(Br)cc2c1OC[C@H]1[C@@H]2Nc2ccc(-c3nnn[nH]3)cc2C1(C)C [Number 164, (6aR,12aS)-2-bromo-6a,7,12,12a-tetrahydro-4-methoxy-7,7-dimethyl-9-(1H-tetrazol-5-yl)-6H-chromeno[4,3-b]quinoline] |  | 5.6
COc1cccc2c1C1Nc3ccc(C(F)(F)F)cc3C(C)(C)C1CO2 (stereo not shown) [Number 44, 1-methoxy-7,7-dimethyl-9-(trifluoromethyl)-7,12,12a,6a-tetrahydrochromano[4,3-b]quinoline] | 2.2 | 
COc1cccc2c1C1Nc3ccc(-c4nncn4C)cc3C(C)(C)C1CO2 (stereo not shown) [Number 74, 1-methoxy-7,7-dimethyl-9-(4-methyl(1,2,4-triazol-3-yl))-7,12,12a,6a-tetrahydrochromano[4,3-b]quinoline] | 7.9 | 
COc1cccc2c1OC[C@H]1[C@@H]2Nc2ccc(C(=O)N3CCOCC3)cc2C1(C)C [Number 119, ((6aR,12aS)-6a,7,12,12a-tetrahydro-4-methoxy-7,7-dimethyl-6H-chromeno[4,3-b]quinolin-9-yl)(morpholino)methanone] |  | 7.5
COc1ccc(Br)c2c1OCC1C2Nc2ccc(C(N)=S)cc2C1(C)C (stereo not shown) [Number 82, amino(1-bromo-4-methoxy-7,7-dimethyl(7,12,12a,6a-tetrahydrochromano[4,3-b]quinolin-9-yl))methane-1-thione] | 2.0 | 
COC(=O)c1ccc2c(c1)C(C)(C)[C@H]1COc3c(OC)cc(Br)cc3[C@H]1N2 [Number 151, (6aR,12aS)-methyl 2-bromo-6a,7,12,12a-tetrahydro-4-methoxy-7,7-dimethyl-6H-chromeno[4,3-b]quinoline-9-carboxylate] |  | 6.3
COc1cccc2c1[C@H]1Nc3ccc(-c4ccc(C(N)=O)cc4)cc3C(C)(C)[C@H]1CO2 [Number 108, 4-((12aS,6aR)-1-methoxy-7,7-dimethyl-7,12,12a,6a-tetrahydrochromano[4,3-b]quinolin-9-yl)benzamide] | 4.7 | 
CCS(=O)(=O)N1CCN(C(=O)c2cnn(-c3ccc4c(c3)C(C)(C)[C@H]3COc5cccc(OC)c5[C@H]3N4)c2C)CC1 [Number 140, 1-((6aR,12aS)-6a,7,12,12a-tetrahydro-1-methoxy-7,7-dimethyl-6H-chromeno[4,3-b]quinolin-9-yl)-5-methyl-1H-pyrazole-4-((4-ethanesulfonylpiperazin-1-yl)methanone)] | 5.1 | 
COc1cccc2c1[C@H]1Nc3ccc(C(C)C)cc3C(C)(C)[C@H]1CO2 [Number 54, (12aS,6aR)-1-methoxy-7,7-dimethyl-9-(methylethyl)-7,12,12a,6a-tetrahydrochromano[4,3-b]quinoline] | 4.3 | 
CC1(C)c2cc(C(O)(C(F)(F)F)C(F)(F)F)ccc2NC2c3cc(Cl)cc(Cl)c3OCC21 (stereo not shown) [Number 68, 2-(2,4-dichloro-7,7-dimethyl(7,12,12a,6a-tetrahydrochromano[4,3-b]quinolin-9-yl))-1,1,1,3,3,3-hexafluoropropan-2-ol] | 2.7 | 
COC(=O)CCN1c2ccccc2C(C)(C)[C@@H]2COc3cccc(OC)c3[C@@H]21 [Number 170, methyl 3-((6aS,12aR)-6a,7-dihydro-1-methoxy-7,7-dimethyl-6H-chromeno[4,3-b]quinolin-12(12aH)-yl)propanoate] |  | 2.3
CC1(C)c2cc(C(N)=O)ccc2NC2c3cccc(F)c3OCC21 (stereo not shown) [Number 50, 4-fluoro-7,7-dimethyl-7,12,12a,6a-tetrahydrochromano[4,3-b]quinoline-9-carboxamide] | 5.0 | 
COc1cccc2c1[C@@H]1[C@H](CO2)C(C)(C)c2ccccc2N1C1CCCCC1 [Number 166, (6aR,12aS)-12-cyclohexyl-6a,7,12,12a-tetrahydro-1-methoxy-7,7-dimethyl-6H-chromeno[4,3-b]quinoline] |  | 12.5
CCCCN1c2ccccc2C(C)(C)[C@H]2COc3cccc(OC)c3[C@H]21 [Number 174, (6aR,12aS)-12-butyl-6a,7,12,12a-tetrahydro-1-methoxy-7,7-dimethyl-6H-chromeno[4,3-b]quinoline] |  | 1.9
Cc1cccc2c1OCC1C2Nc2ccc(C(O)(C(F)(F)F)C(F)(F)F)cc2C1(C)C (stereo not shown) [Number 18, 1,1,1,3,3,3-hexafluoro-2-(4,7,7-trimethyl(7,12,12a,6a-tetrahydrochromano[4,3-b]quinolin-9-yl))propan-2-ol] | 5.3 | 
COc1cc(-c2cn[nH]c2)cc2c1OC[C@@H]1[C@@H]2Nc2ccc(-c3cnco3)cc2C1(C)C [Number 160, (6aS,12aS)-6a,7,12,12a-tetrahydro-4-methoxy-7,7-dimethyl-9-(oxazol-5-yl)-2-(1H-pyrazol-4-yl)-6H-chromeno[4,3-b]quinoline] |  | 4.7
